Measured values: patent US11850254B2, “Tryptamine compositions for enhancing neurite outgrowth” (TURTLE BEAR HOLDINGS, LLC, priority 2019, dated 2023)
Entries after “also recorded” stand apart in the source; their conditions may differ. Read-outs that look alike come from different tables or passages of the source.

Experiments:
[1] = test system: anti-inflammatory cytokine IL-10 in human 1321N1 brain cells; assay: ELISA of IL-10 in 1321N1 cells; assay type: cell-based
Description: (§1) See Ly et al., “Psychedelics Promote Structural and Functional Neural Plasticity,” Cell Rep.

[2] = test system: cortical neurons from rat embryo; assay: Neurite outgrowth and length in cultured neurons (Neurofit), tubulin immunostaining, High-Content Screening; conditions: versus vehicle control, at the concentrations tested
[3] = test system: PC12 cells treated with conditioned media from 1321N1 human astrocytoma cells; assay: Neurite outgrowth of PC12 cells treated with conditioned media from 1321N1 cells; assay type: cell-based, rat; conditions: conditioned media from treated 1321N1 cells; FIG. 11, n=3
Description: Although the assay aimed to explore potential synergistic effects of combining HE and psilocybin analogs, this was not clearly observed. […] 1321N1 human brain astrocytoma cells are known to excrete neurologically beneficial compounds when stimulated with neurotrophic compounds and fungal extracts including lion's mane (Mori et al., Biological and Pharmaceutical Bulletin, 9: 1727-1732 (2008)). While some fungi have well established mechanisms by which they benefit neurological health, little is known about the role of psilocybin analogs specifically. Generally following the protocol of Mori et al., 2008, 1321N1 human astrocytoma cells were treated with psilocybin analogs, and conditioned media was collected and applied to differentiated rat pheochromocytoma PC12 cells to determine the resulting impact on neurite outgrowth.

humans = conditions: cited from earlier work
neurogenesis = conditions: Ly et al. 2018; cited from earlier work
5-HT2A receptor = 5-HT2A receptor (Homo sapiens, UniProt P28223); conditions: cited from earlier work
human U87 cells = conditions: Zhang et al. 2020; cited from earlier work
[4] = test system: nerve growth factor (NGF) protein in human 1321N1 brain cells; assay: ELISA of NGF protein in 1321N1 cells; assay type: cell-based; conditions: compared to a vehicle control; n=3; p<0.05
Description: Accordingly, preliminary research has started to reveal the mechanisms by which psilocybin analogs may confer neurotrophic benefits that facilitate neurite outgrowth.
as §1

Chain of 5-HT2A receptor (P28223 whole entry): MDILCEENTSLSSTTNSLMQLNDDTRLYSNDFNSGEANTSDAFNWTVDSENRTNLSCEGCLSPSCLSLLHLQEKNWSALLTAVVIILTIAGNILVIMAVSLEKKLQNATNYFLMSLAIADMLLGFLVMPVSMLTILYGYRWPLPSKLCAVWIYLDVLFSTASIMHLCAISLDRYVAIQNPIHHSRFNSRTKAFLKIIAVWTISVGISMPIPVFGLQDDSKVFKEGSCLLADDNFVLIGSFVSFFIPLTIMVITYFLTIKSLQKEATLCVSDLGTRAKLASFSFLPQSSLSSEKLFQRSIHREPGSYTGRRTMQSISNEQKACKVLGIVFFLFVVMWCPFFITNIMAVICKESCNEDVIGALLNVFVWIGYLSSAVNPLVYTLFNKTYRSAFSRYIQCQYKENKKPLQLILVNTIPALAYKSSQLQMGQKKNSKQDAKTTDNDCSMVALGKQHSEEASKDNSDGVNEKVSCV

## CNCCc1c[nH]c2cccc(O)c12 [norpsilocin, 4-hydroxy-N-methyl-tryptamine]
[1]
  expression of the anti-inflammatory cytokine IL-10: induces the expression
[2]
  neurite outgrowth, in words: did not perform better than vehicle control
[3]
  neurite outgrowth in PC12 cells: induce neurite outgrowth

## CNCCc1c[nH]c2cccc(OP(=O)(O)O)c12 [baeocystin, 4-phosphoryloxy-N-methyltryptamine]
humans; 4 mg consumed, Gartz 1991
  hallucinogenic effect: gentle hallucinogenic experience
humans; Gartz 1997
  potency and psychotropic effects: roughly akin to psilocybin
humans; oral consumption of 10 mg and 20 mg
  hallucinogenic effect: did not produce any hallucinogenic effects
[3]
  neurite outgrowth in PC12 cells: induce neurite outgrowth

## CCN(CC)C(=O)[C@@H]1C=C2c3cccc4[nH]cc(c34)C[C@H]2N(C)C1 [LSD, N,N-diethyl-D-lysergamide]
neurogenesis
  neurogenesis: promoted neurogenesis

## COc1cc(C[C@@H](C)N)c(OC)cc1I [(R)-2,5-dimethoxy-4-iodoamphetamine]
5-HT2A receptor
  5-HT2A receptor activation: activate the 5-HT2A receptor

## CC(=O)O[C@@H]1C[C@@H]2C3=C(C(C)C)CC[C@]3(C)CC[C@@]2(C)[C@@H](O[C@@H]2OC[C@@H](O)[C@H](O)[C@H]2O)C=C1C=O [P]
Human U87 cells
  inhibition of gliomas: inhibitors of gliomas

## CN(C)CCc1c[nH]c2ccccc12 [dimethyltryptamine, N,N-dimethyltryptamine]
neurogenesis
  neurogenesis: promoted neurogenesis

## NCCc1c[nH]c2cccc(OP(=O)(O)O)c12 [norbaeocystin, 4-phosphoryloxy-tryptamine]
[3]
  neurite outgrowth in PC12 cells: induce neurite outgrowth
[4]
  expression of NGF protein: increased expression of NGF protein; also recorded: induces the expression; also recorded: induction of NGF protein

## COc1cc(CC(C)N)c(OC)cc1I (centres unmarked) [DOI, 2,5-dimethoxy-4-iodoamphetamine]
neurogenesis
  neurogenesis: promoted neurogenesis
